The target in the test is T1, Androgen Receptor (Homo sapiens, UniProt P10275).
T1 construct: endogenous in cells; host or cells: VCaP cells
T1 sequence (P10275 1-920): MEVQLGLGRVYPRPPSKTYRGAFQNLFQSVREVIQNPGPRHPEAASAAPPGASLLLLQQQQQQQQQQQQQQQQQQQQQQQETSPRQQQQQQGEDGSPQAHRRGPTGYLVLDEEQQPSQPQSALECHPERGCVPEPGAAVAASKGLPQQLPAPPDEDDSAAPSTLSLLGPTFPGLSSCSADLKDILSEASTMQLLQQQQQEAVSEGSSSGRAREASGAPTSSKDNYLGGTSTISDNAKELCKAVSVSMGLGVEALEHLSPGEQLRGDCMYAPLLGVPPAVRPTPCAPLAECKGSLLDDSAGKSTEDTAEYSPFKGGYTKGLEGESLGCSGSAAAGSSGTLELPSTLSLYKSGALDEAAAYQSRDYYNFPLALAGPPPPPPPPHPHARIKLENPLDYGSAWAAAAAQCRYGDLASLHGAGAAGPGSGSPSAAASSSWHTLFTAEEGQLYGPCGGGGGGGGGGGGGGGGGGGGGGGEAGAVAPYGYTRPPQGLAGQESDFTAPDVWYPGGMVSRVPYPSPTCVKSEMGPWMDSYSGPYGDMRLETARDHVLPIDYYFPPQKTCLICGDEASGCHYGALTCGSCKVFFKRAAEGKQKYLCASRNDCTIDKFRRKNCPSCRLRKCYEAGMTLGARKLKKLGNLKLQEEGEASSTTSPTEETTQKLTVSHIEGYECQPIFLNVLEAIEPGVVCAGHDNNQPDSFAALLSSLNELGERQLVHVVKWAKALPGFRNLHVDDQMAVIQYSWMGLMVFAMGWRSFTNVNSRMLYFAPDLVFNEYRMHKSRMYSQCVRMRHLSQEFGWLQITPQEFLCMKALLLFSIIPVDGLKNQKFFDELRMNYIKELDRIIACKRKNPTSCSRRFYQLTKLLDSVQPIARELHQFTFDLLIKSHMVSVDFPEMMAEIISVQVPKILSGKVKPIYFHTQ
Put plainly: Androgen Receptor ELISA assay (PathScan AR ELISA) in VCaP cells: AR degradation, Dmax and DC50. It is filed as cell-based. To be noted: for DC50: read-out: VCaP DC50; for Dmax: VCaP. In short, it runs like this:
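After 24 h exposure of VCaP cells (charcoal-stripped serum, 0.1 nM R1881 agonist, 0.1% DMSO) to seven half-log compound concentrations, residual AR in lysates was measured by PathScan ELISA (TMB absorbance, 450 nm). Cells were plated at 30,000/well and grown at least 3 days beforehand.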

The mark [1] stands for this setting: VCaP cells, Table 36, read-out: VCaP Dmax (%).
Where [2] appears, read: read-out: VCaP Dmax (%), VCaP cells, Table 36.

Data on twelve compounds can be found in patent US11427548B2 (Arvinas Operations, Inc., priority 2015, dated 2022).

Like-named read-outs stand apart in the source and are kept apart here.

On to `C[C@H](NC(=O)[C@@H]1C[C@@H](O)CN1C(=O)[C@@H](NC(=O)CN1CCN(CCCc2ccc(C(=O)N[C@H]3C(C)(C)[C@H](Oc4ccc(C#N)c(Cl)c4)C3(C)C)cc2)CC1)C(C)(C)C)c1ccc(Cl)cc1` [Example 739, (2S,4R)-1-((S)-2-(2-(4-(3-(4-(((1r,3r)-3-(3-chloro-4-cyanophenoxy)-2,2,4,4-tetramethylcyclobutyl)carbamoyl)phenyl)propyl)piperazin-1-yl)acetamido)-3,3-dimethylbutanoyl)-N-((S)-1-(4-chlorophenyl)ethyl)-4-hydroxypyrrolidine-2-carboxamide], for which the 50% degradation concentration (DC50) (VCaP cells, Table 36) was > 501 nM. For the same compound, under setting [1], the Dmax was < 25%.
On the same counts, the results for `C[C@H](NC(=O)C1C[C@@H](O)CN1C(=O)[C@@H](NC(=O)COCCCCCc1ccc(C(=O)N[C@H]2C(C)(C)[C@H](Oc3ccc(C#N)c(Cl)c3)C2(C)C)cc1)C(C)(C)C)c1ccc(Cl)cc1` (stereo partly drawn) [Example 740, (2S,4R)-1-((S)-2-(2-((5-(4-(((1r,3r)-3-(3-chloro-4-cyanophenoxy)-2,2,4,4-tetramethylcyclobutyl)carbamoyl)phenyl)pentyl)oxy)acetamido)-3,3-dimethylbutanoyl)-N-((S)-1-(4-chlorophenyl)ethyl)-4-hydroxypyrroldiine-2-carboxamide] are < 50 nM and 51 to 70%.
For `Cc1ncsc1-c1ccc([C@H](C)NC(=O)[C@@H]2C[C@@H](O)CN2C(=O)[C@@H](NC(=O)CN2CCN(CC3(Cc4ccc(C(=O)N[C@H]5C(C)(C)[C@H](Oc6ccc(C#N)c(C(F)(F)F)c6)C5(C)C)cc4)COC3)CC2)C(C)(C)C)cc1` [Example 741, (2S,4R)-1-((S)-2-(2-(4-((3-(4-(((1r,3r)-3-(4-cyano-3-(trifluoromethyl)phenoxy)-2,2,4,4-tetramethylcyclobutyl)carbamoyl)benzyl)oxetan-3-yl)methyl)piperazin-1-yl)acetamido)-3,3-dimethylbutanoyl)-4-hydroxy-N-((S)-1-(4-(4-methylthiazol-5-yl)phenyl)ethyl)pyrrolidine-2-carboxamide], the 50% degradation concentration (DC50) (VCaP cells, Table 36) was < 50 nM. In addition, the Dmax (read-out: VCaP Dmax (%)) was in the range of 51 to 70%.
Turning to `CC(C)[C@H](OCCN1CCN(c2ccc(C(=O)N[C@H]3C(C)(C)[C@H](Oc4ccc(C#N)c(Cl)c4)C3(C)C)cn2)CC1)C(=O)N[C@H](C(=O)N1C[C@H](O)C[C@H]1C(=O)NCc1ccc(Cl)cc1)C(C)(C)C` [Example 742, N-((1r,3r)-3-(3-chloro-4-cyanophenoxy)-2,2,4,4-tetramethylcyclobutyl)-6-(4-(2-(((S)-1-(((S)-1-((2S,4R)-2-((4-chlorobenzyl)carbamoyl)-4-hydroxypyrrolidin-1-yl)-3,3-dimethyl-1-oxoutan-2-yl)amino)-3-methyl-1-oxobutan-2-yl)oxy)ethyl)piperazin-1-yl)nicotinamide], the half-maximal degradation concentration (DC50) (VCaP cells, Table 36) was > 501 nM. For the same compound, the Dmax under setting [1] was < 25%.
For `CC(C)[C@@H](C(=O)N1C[C@H](O)C[C@H]1C(=O)NCc1ccc(Cl)cc1OCCN1CCN(c2ccc(C(=O)N[C@H]3C(C)(C)[C@H](Oc4ccc(C#N)c(Cl)c4)C3(C)C)cn2)CC1)N1Cc2ccccc2C1=O` [Example 743, 6-(4-(2-(5-chloro-2-(((2S,4R)-4-hydroxy-1-((S)-3-methyl-2-(1-oxoisoindolin-2-yl)butanoyl)pyrrolidine-2-carboxamido)methyl)phenoxy)ethyl)piperazin-1-yl)-N-((1r,3r)-3-(3-chloro-4-cyanophenoxy)-2,2,4,4-tetramethylcyclobutyl) nicotinamide], the half-maximal degradation concentration (DC50) (VCaP cells, Table 36) was > 501 nM. In addition, the Dmax under setting [1] is < 25%.
`Cc1ncsc1-c1ccc([C@H](C)NC(=O)[C@@H]2C[C@@H](O)CN2C(=O)[C@@H](NC(=O)CN2CCN(CCC3(c4ccc(C(=O)N[C@H]5C(C)(C)[C@H](Oc6ccc(C#N)c(Cl)c6)C5(C)C)cc4)COC3)CC2)C(C)(C)C)cc1` [Example 744, (2S,4R)-1-((S)-2-(2-(4-(2-(3-(4-(((1r,3r)-3-(3-chloro-4-cyanophenoxy)-2,2,4,4-tetramethylcyclobutyl)carbamoyl)phenyl)oxetan-3-yl)ethyl)piperazin-1-yl)acetamido)-3,3-dimethylbutanoyl)-4-hydroxy-N-((S)-1-(4-(4-methylthiazol-5-yl)phenyl)ethyl)pyrrolidine-2-carboxamide]: the half-maximal degradation concentration (DC50) (VCaP cells, Table 36) is > 501 nM. The Dmax (read-out: VCaP Dmax (%)) is < 25%.
`Cc1ncsc1-c1ccc([C@H](C)NC(=O)[C@@H]2C[C@@H](O)CN2C(=O)[C@H](NC(=O)CN2CCN(CCCc3ccc(C(=O)N[C@H]4C(C)(C)[C@H](Oc5ccc(C#N)c(C#N)c5)C4(C)C)cc3)CC2)C2COC2)cc1` [Example 745, (2S,4R)-1-((R)-2-(2-(4-(3-(4-(((1r,3r)-3-(3,4-dicyanophenoxy)-2,2,4,4-tetramethylcyclobutyl)carbamoyl)phenyl)propyl)piperazin-1-yl)acetamido)-2-(oxetan-3-yl)acetyl)-4-hydroxy-N-((S)-1-(4-(4-methylthiazol-5-yl)phenyl)ethyl)pyrrolidine-2-carboxamide]: the DC50 (VCaP cells, Table 36) is > 501 nM. Besides, under setting [2], the Dmax is < 25%.
On to `Cc1ncsc1-c1ccc([C@H](C)NC(=O)[C@@H]2C[C@@H](O)CN2C(=O)[C@@H](NC(=O)CN2CCN(CCCc3ccc(C(=O)N[C@H]4C(C)(C)[C@H](Oc5ccc(C#N)c(C#N)c5)C4(C)C)cc3)CC2)C2COC2)cc1` [Example 746, (2S,4R)-1-((S)-2-(2-(4-(3-(4-(((1r,3r)-3-(3,4-dicyanophenoxy)-2,2,4,4-tetramethylcyclobutyl)carbamoyl)phenyl)propyl)piperazin-1-yl)acetamido)-2-(oxetan-3-yl)acetyl)-4-hydroxy-N-((S)-1-(4-(4-methylthiazol-5-yl)phenyl)ethyl)pyrrolidine-2-carboxamide], for which the DC50 (VCaP cells, Table 36) is > 501 nM. Under setting [2], the Dmax is < 25%.
For the compound `Cc1ncsc1-c1ccc([C@H](C)NC(=O)[C@@H]2C[C@@H](O)CN2C(=O)[C@@H](NC(=O)CCCc2ccc(C(=O)N[C@H]3C(C)(C)[C@H](Oc4ccc(C#N)c(Cl)c4)C3(C)C)cc2)C(C)(C)C)cc1` [Example 747, (2S,4R)-1-((S)-2-(4-(4-(((1r,3S)-3-(3-chloro-4-cyanophenoxy)-2,2,4,4-tetramethylcyclobutyl)carbamoyl)phenyl)butan-amido)-3,3-dimethylbutanoyl)-4-hydroxy-N-((S)-1-(4-(4-methylthiazol-5-yl)phenyl)ethyl)pyrrolidine-2-carboxamide], for the setting “VCaP cells, Table 36”, the DC50 was > 501 nM. The Dmax under setting [1] was < 25%.
Regarding `Cc1ncsc1-c1ccc([C@H](C)NC(=O)[C@@H]2C[C@@H](O)CN2C(=O)C(NC(=O)CCCCCc2ccc(C(=O)N[C@H]3C(C)(C)[C@H](Oc4ccc(C#N)c(Cl)c4)C3(C)C)cc2)C(C)(C)C)cc1` (stereo partly drawn) [Example 748, (2S,4R)-1-((S)-2-(6-(4-(((1r,3r)-3-(3-chloro-4-cyanophenoxy)-2,2,4,4-tetramethylcyclobutyl)carbamoyl)phenyl)hexan-amido)-3,3-dimethylbutanoyl)-4-hydroxy-N-((S)-1-(4-(4-methylthiazol-5-yl)phenyl)ethyl)pyrrolidine-2-carboxamide], the 50% degradation concentration (DC50) (VCaP cells, Table 36) is < 50 nM. For the same compound, the Dmax under setting [1] is 26 to 50%.
On the same counts, the results for `Cc1ncsc1-c1ccc([C@H](C)NC(=O)C2C[C@@H](O)CN2C(=O)[C@@H](NC(=O)CCCCCCc2ccc(C(=O)N[C@H]3C(C)(C)[C@H](Oc4ccc(C#N)c(Cl)c4)C3(C)C)cc2)C(C)(C)C)cc1` (stereo partly drawn) [Example 749, (2S,4R)-1-((S)-2-(7-(4-(((1r,3r)-3-(3-chloro-4-cyanophenoxy)-2,2,4,4-tetramethylcyclobutyl)carbamoyl)phenyl)heptan-amido)-3,3-dimethylbutanoyl)-4-hydroxy-N-((S)-1-(4-(4-methylthiazol-5-yl)phenyl)ethyl)pyrrolidine-2-carboxamide] are < 50 nM and > 71%.
The matching figures for `Cc1ncsc1-c1ccc([C@H](C)NC(=O)[C@@H]2C[C@@H](O)CN2C(=O)[C@H](NC(=O)CN2CCN(CCCc3ccc(C(=O)N[C@H]4C(C)(C)[C@H](Oc5ccc(C#N)c(Cl)c5)C4(C)C)cc3)CC2)C2COC2)cc1` [Example 750, (2S,4R)-1-((R)-2-(4-(4-(3-(4-(((1r,3r)-3-(3-chloro-4-caynophenoxy)-2,2,4,4-tetramethylcyclobutyl)carbamoyl)phenyl)propyl)piperazin-1-yl)acetamido)-2-(oxetan-3-yl)acetyl)-4-hydroxy-N-((S)-1-(4-(4-methylthiazol-5-yl)phenyl)ethyl)pyrrolidine-2-carboxamide]: > 501 nM and < 25%.
